Where two headings read alike, the source gives them in different places.

A short description of data set [1]: MSCR test, percentage elastic recovery. The data set is classed as physicochemical. To be noted: bitumen 20/30 + 5% compound.
The conditions of data set [2]: bitumen 20/30 + 5% compound.
Data set [3] is described as follows: Softening point ring & ball of rejuvenated bitumen. Conditions: bitumen 20/30 rejuvenated with 5% of the compound, 180° C., 30 minutes.
The conditions of data set [4]: labelling of the product itself; — = none; cited from earlier work.
Data set [5] is described as follows: Softening point of rejuvenated aged bitumen. Conditions: aged bitumen 50/70 BP + 5% compound. The data set is classed as physicochemical.
The format of data set [6] is physicochemical. Conditions: aged bitumen 50/70 BP + 5% compound.
A short description of data set [7]: MSCR elastic recovery of rejuvenated aged bitumen. Conditions: aged bitumen 50/70 BP + 5% compound. The data set is classed as physicochemical.
Data set [8] can be described thus: Softening point of rejuvenated aged bitumen. The data set is classed as physicochemical. To be noted: aged bitumen 50/70 PCK Schwedt + 5% compound.
Data set [9] is classed as physicochemical. To be noted: aged bitumen 50/70 PCK Schwedt + 5% compound.
A short description of data set [10]: MSCR elastic recovery of rejuvenated aged bitumen. The data set is classed as physicochemical. To be noted: aged bitumen 50/70 PCK Schwedt + 5% compound.
Data set [11] can be described thus: Softening point of rejuvenated RAP bitumen. To be noted: bitumen extracted from RAP + 5% compound. The data set is classed as physicochemical.
The format of data set [12] is physicochemical. To be noted: bitumen extracted from RAP + 5% compound.
A short description of data set [13]: MSCR elastic recovery of rejuvenated RAP bitumen. To be noted: bitumen extracted from RAP + 5% compound. Type of data set: physicochemical.
Data set [14] in a line: Low temperature performance, bending beam rheometer (BBR) at −16° C. The data set is classed as physicochemical. Here is the method: Different bitumen samples were rejuvenated as in Example 1, and the BBR values S (flexural creep stiffness) and m […] were evaluated at −16° C. The results were compared to the not rejuvenated bitumen sample as well as to the bitumen rejuvenated with the benchmark RheoFalt® HP-AM (Comp. 1.3).

Data set [15] is described as follows: Loss tangent from DSR frequency sweep at 60° C. Type of data set: physicochemical. An excerpt: In addition, it could be shown that additives according to the present invention perform most of the times better than the common benchmarks according to the standard testing techniques for the low, mid and high temperature range. What cannot be extracted from these measurements however is an indication of the working mechanism.

A short description of data set [16]: TD NMR relaxation time measurements (SE-CPMG, multicomponent fitting). To be noted: for 1/<1/T2e>: harmonic average relaxation time of the mobile components. Type of data set: physicochemical. An excerpt: TD NMR, also known as NMR relaxometry, is a known NMR technique and relies on measuring the relaxation times of the nuclear spin system instead of frequency-domain spectra. […] Also, sample preparation is much simpler as there are no concerns about sample homogeneity and no solvents are needed.
Like that, a clear distinction between protons in a solid, amorphous and liquid component can be made with good accuracy.
Bitumen 20/30 was rejuvenated with some of the here claimed rejuvenating agents according to example 1. The pure bitumen 20/30 as well as the rejuvenated bitumen 20/30 samples were then analyzed by TD NMR. To do so, all samples were heated up to 80° C. to allow filling of the samples into NMR tubes. After that, TD NMR measurements at 30° C., 80° C. and 140° C. were conducted using the SE-CMPG sequence. This sequence consists of a solid echo combined with a so-called CPMG (Carr-Purcell-Meiboom-Gill) train of subsequent spin echoes with alternating phase and is capable of recording the decay of coherence in the transverse nuclear magnetization over about 5 orders of magnitude in time. Depending on the measurement temperature, the experimental data were then fitted with semi-empirically selected multicomponent models involving several Gaussian and exponential components:
S(t)=[pg1 exp(−(t/T2g1)^2)+pg2 exp(−(t/T2g2)^2)]+pe1 exp(−t/T2e1)[pe2 exp(−t/T2e2)+pe3 exp(−t/T2e3)]
In order to assess the effect of temperature on the molecular mobility of the bitumen, experiments were conducted at temperatures of 30° C., 80° C. and 140° C., and the following models turned out to provide adequate fits of the respective normalized signal decay curves: • two Gaussians and one exponential at 30° C., • two Gaussians and two exponentials at 80° C., • three exponentials at 140° C.
From the fitting, different values can be obtained: • The p values (pg1, pg2, pe1, pe2 and pe3), indicating the signal fraction of the individual component scaled in the range from 0 to 1 • The T2 values (T2g1, T2g2, T2e1, T2e2 and T2e3), indicating the relaxation times that correspond to each of the individual components. The longer the relaxation time, the higher the molecular mobility of the respective component • In addition to the values T2e1, T2e2 and T2e3, we also calculated the average relaxation time of the mobile components, 1/<1/T2e>, for the temperatures at which more than one mobile component exist (80 and 140° C.). 1/<1/T2e> Is calculated as the harmonic average of the relaxation times involved:
[formula] • The type of the component, those being: • g1: the rigid component • g2: the partially mobile component • e1, e2 and e3: mobile components with increasingly high local molecular mobilities
It is believed that the rigid component g1 is directly correlated with the amount of the asphaltene aggregates. The mobile component(s) on the other hand can be attributed to the maltene phase.

[17] abbreviates: aged bitumen 50/70 BP + 5% compound.
Where [18] appears, read: 30° C., bitumen 20/30 + additive.
The mark [19] stands for this setting: 80° C., bitumen 20/30 + additive.
Where [20] appears, read: 140° C., bitumen 20/30 + additive.

`CC(COCC1CO1)(COCC1CO1)c1ccccc1` (stereo not drawn) [2-Methyl-2-phenyl-1,3-propandiol bis glycidylether]: in [1], the “MSCR % Rec. (0.1 kPa)” value is recorded as 8%, the “MSCR % Rec. (1.6 kPa)” value is on record as 3% and the “MSCR % Rec. (3.2 kPa)” value was 1%. For the same compound, the “η(135° C.) [mPas]” value in [2] is 900 mPas. The “SP [° C.] (softening point)” value in data set [3] was 52.0 °C.

As for `CCCCCCCCCCCCc1ccc(S(=O)(=O)O)cc1` [Dodecylbenzene sulfonic acid], in [1], the “MSCR % Rec. (0.1 kPa)” value is listed as 27%, the “MSCR % Rec. (1.6 kPa)” value is 25% and the “MSCR % Rec. (3.2 kPa)” value worked out at 21%. Also, in data set [4], the “tox (toxicology/eco toxicology)” value was “Harmful”. For the same compound, in data set [2], the “η(135° C.) [mPas]” value is 2,100 mPas. In [3], the “SP [° C.] (softening point)” value was 64.0 °C.

In the case of `CCCCCCCCCCCCN1CCCC1=O` [N-Dodecyl pyrrolidone], the “MSCR % Rec. (0.1 kPa)” value in data set [1] is on record as 4%; in data set [7] (0.1 kPa), 5%; in [10] (0.1 kPa), 5%; in data set [13] (0.1 kPa), 7%. Further, the “MSCR % Rec. (1.6 kPa)” value is given as 1% in data set [1], 2% in data set [7] (1.6 kPa), 1% in [10] (1.6 kPa) and 3% in data set [13] (1.6 kPa). The “MSCR % Rec. (3.2 kPa)” value in data set [1] is on record as 0%; in data set [7] (3.2 kPa) it was 0%; in data set [10] (3.2 kPa), 0%; in data set [13] (3.2 kPa) it was 1%. For the same compound, the “SP [° C.]” value came out at 51.0 °C in [5], 50.0 °C in data set [8] and 53.0 °C in data set [11]. The “η(135° C.) [mPas]” value in [6] was determined as 950 mPas; in [9], 700 mPas; in data set [12], 850 mPas; in data set [2], 800 mPas. Moreover, the “S-value [MPa] (flexural creep stiffness)” value in data set [14] (setting [17]) and in [14] (bitumen 20/30 + 5% compound) was 90 MPa in each case. In addition, the m-value worked out at 0.43 in data set [14] (setting [17]) and 0.44 in data set [14] (bitumen 20/30 + 5% compound). In addition, the “tan δ” value in [15] (aged bitumen 50/70 BP + 5% compound, lowest frequency) came out at 80; in data set [15] (aged bitumen 50/70 PCK Schwedt + 5% compound, lowest frequency) it was 100; in data set [15] (bitumen 20/30 + 5% compound, lowest frequency (0.01 rad/s)), 80; in data set [15] (bitumen extracted from RAP + 5% compound, lowest frequency), 70. In addition, the “T2e1” value was determined as 0.20 ms in [16] (setting [18]), 0.50 ms in [16] (setting [19]) and 0.21 ms in data set [16] (setting [20]). The “T2g1” value in data set [16] (setting [18]) came out at 0.016 ms; in data set [16] (setting [19]) it was 0.017 ms. The “T2g2” value in data set [16] (setting [18]) is on record as 0.045 ms; in data set [16] (setting [19]), 0.054 ms. Further, the pe1 in data set [16] (30° C., mobile component, bitumen 20/30 + additive) is recorded as 0.44; in data set [16] (setting [19]), 0.48; in data set [16] (setting [20]) it was 0.18. The pg2 amounted to 0.17 in [16] (30° C., partially mobile component, bitumen 20/30 + additive) and 0.074 in data set [16] (setting [19]). In addition, the pg1 was found to be 0.38 in [16] (30° C., signal fraction of rigid component, bitumen 20/30 + additive) and 0.09 in data set [16] (setting [19]). The “T2e2” value in [16] (setting [19]) is given as 2.53 ms; in data set [16] (setting [20]) it was 4.76 ms. For the same compound, the pe2 in data set [16] (setting [19]) was determined as 0.35; in data set [16] (setting [20]) it was 0.47. Moreover, the “1/<1/T2e>” value in [16] (80° C.) turned out to be 0.76 ms; in data set [16] (140° C.), 1.0 ms. Besides, the “T2e3” value in data set [16] (setting [20]) is given as 25.72 ms. The pe3 in data set [16] (setting [20]) was 0.34. In addition, in [3], the “SP [° C.] (softening point)” value stood at 47.0 °C.

As for `CC(C)(COCC1CO1)COCC1CO1` (stereo not drawn) [Neopentylglycol bis glycidylether], in data set [1], the “MSCR % Rec. (0.1 kPa)” value was 11%, the “MSCR % Rec. (1.6 kPa)” value worked out at 5% and the “MSCR % Rec. (3.2 kPa)” value was 2%. Moreover, the “tox (toxicology/eco toxicology)” value in [4] is given as “Irritating”. For the same compound, in [2], the “η(135° C.) [mPas]” value was 1,050 mPas. The “SP [° C.] (softening point)” value in data set [3] amounted to 52.0 °C.

Regarding `CC(C)CCCCCCOC(=O)c1ccccc1C(=O)OCCCCCCC(C)C` [Palatinol ® DINP, diisononyl phthalate], in [1], the “MSCR % Rec. (0.1 kPa)” value is 9%, the “MSCR % Rec. (1.6 kPa)” value is 3% and the “MSCR % Rec. (3.2 kPa)” value was 1%. Further, in [2], the “η(135° C.) [mPas]” value is 950 mPas. For the same compound, the “SP [° C.] (softening point)” value in data set [3] turned out to be 52.0 °C.

Consider Dodecenyl succinic acid anhydride, for which, in data set [2], the “η(135° C.) [mPas]” value is recorded as 950 mPas.

In the case of Polyethylenglycol bis glycidylether, in [1], the “MSCR % Rec. (0.1 kPa)” value came to 16%, the “MSCR % Rec. (1.6 kPa)” value is 10% and the “MSCR % Rec. (3.2 kPa)” value came to 5%. The “η(135° C.) [mPas]” value in data set [2] is reported as 1,000 mPas. Further, the “SP [° C.] (softening point)” value in data set [3] was 57.0 °C.

Source of the values: patent US20230220206A1, “REJUVENATING AGENTS FOR ASPHALT RECYCLING” (BASF SE, priority 2020, published 2023).
